Data published in article PMC9487510, “A Novel Oral GyrB/ParE Dual Binding Inhibitor Effective against Multidrug-Resistant Neisseria gonorrhoeae and Other High-Threat Pathogens” (Antimicrobial Agents and Chemotherapy, 2022).
Values after ≈ are worked out from the molar mass of the structure shown. Like-named read-outs stand apart in the source and are kept apart here.

Tested on: N. gonorrhoeae clinical isolates
Experiment: MIC, agar dilution (CLSI)
Format: cell-based, Neisseria gonorrhoeae
Conditions: Neisseria gonorrhoeae

CC[C@H]1OC(=O)[C@H](C)[C@@H](O[C@H]2C[C@@](C)(OC)[C@@H](O)[C@H](C)O2)[C@H](C)[C@@H](O[C@@H]2O[C@H](C)C[C@H](N(C)C)[C@H]2O)[C@](C)(O)C[C@@H](C)CN(C)[C@H](C)[C@@H](O)[C@]1(C)O [Azi, azithromycin]
MIC50: 0.125 µg/mL (≈ 0.167 µM) | MIC (strain CDC1 (GCREF2012 016), read-out: MIC): 0.25 µg/mL (≈ 0.334 µM) | MIC (strain CDC2 (GCREF2012 045), read-out: MIC): 0.5 µg/mL (≈ 0.668 µM) | MIC (strain CDC3 (GCREF2013 013)): 0.125 µg/mL (≈ 0.167 µM) | MIC (strain CDC4 (GCREF2013 030)): 0.125 µg/mL (≈ 0.167 µM) | MIC (strain CDC5 (GCREF2012 001), read-out: MIC): 0.5 µg/mL (≈ 0.668 µM) | MIC (strain CDC6 (GCREF2012 002), read-out: MIC): 0.5 µg/mL (≈ 0.668 µM) | MIC (strain CDC8 (GCREF2012 004)): 0.125 µg/mL (≈ 0.167 µM) | MIC (strain CDC9 (GCREF2012 005)): 0.125 µg/mL (≈ 0.167 µM) | MIC (strain CDC10 (GCREF2012 006), read-out: MIC): 0.5 µg/mL (≈ 0.668 µM) | MIC (strain CDC11 (GCREF2012 007), read-out: MIC): 0.25 µg/mL (≈ 0.334 µM) | MIC (strain CDC12 (GCREF2012 008)): 0.125 µg/mL (≈ 0.167 µM) | MIC (strain CDC13 (GCREF2012 009)): 0.125 µg/mL (≈ 0.167 µM) | MIC (strain CDC14 (GCREF2012 010)): 0.125 µg/mL (≈ 0.167 µM) | MIC (strain CDC15 (GCREF2012 011), read-out: MIC): 4 µg/mL (≈ 5.34 µM) | MIC (strain CDC16 (GCREF2012 012), read-out: MIC): 0.25 µg/mL (≈ 0.334 µM) | MIC (strain CDC18 (GCREF2012 014), read-out: MIC): 0.5 µg/mL (≈ 0.668 µM) | MIC (strain CDC19 (GCREF2012 015), read-out: MIC): 8 µg/mL (≈ 10.7 µM) | MIC (strain CDC20 (GCREF2012 017), read-out: MIC): > 16 µg/mL | MIC (strain CDC21 (GCREF2012 018)): 0.125 µg/mL (≈ 0.167 µM) | MIC (strain CDC22 (GCREF2012 019), read-out: MIC): 0.5 µg/mL (≈ 0.668 µM) | MIC (strain CDC23 (GCREF2012 020)): 0.125 µg/mL (≈ 0.167 µM) | MIC (strain CDC24 (GCREF2012 021), read-out: MIC): 0.25 µg/mL (≈ 0.334 µM) | MIC (strain CDC25 (GCREF2012 022)): 0.125 µg/mL (≈ 0.167 µM) | MIC (strain CDC26 (GCREF2012 023), read-out: MIC): 0.5 µg/mL (≈ 0.668 µM) | MIC (strain CDC27 (GCREF2012 024), read-out: MIC): 0.25 µg/mL (≈ 0.334 µM) | MIC (strain CDC28 (GCREF2012 025), read-out: MIC): 0.25 µg/mL (≈ 0.334 µM) | MIC (strain CDC29 (GCREF2012 026), read-out: MIC): 0.5 µg/mL (≈ 0.668 µM) | MIC (strain CDC30 (GCREF2012 027), read-out: MIC): 0.25 µg/mL (≈ 0.334 µM) | MIC (strain CDC31 (GCREF2012 028), read-out: MIC): 0.5 µg/mL (≈ 0.668 µM) | MIC (strain CDC32 (GCREF2012 029)): 0.125 µg/mL (≈ 0.167 µM) | MIC (strain CDC33 (GCREF2012 030)): 0.125 µg/mL (≈ 0.167 µM) | MIC (strain CDC34 (GCREF2012 031)): 0.125 µg/mL (≈ 0.167 µM) | MIC (strain CDC35 (GCREF2012 032), read-out: MIC): 0.25 µg/mL (≈ 0.334 µM) | MIC (strain CDC36 (GCREF2012 033), read-out: MIC): 4 µg/mL (≈ 5.34 µM) | MIC (strain CDC37 (GCREF2012 034), read-out: MIC): 0.25 µg/mL (≈ 0.334 µM) | MIC (strain CDC38 (GCREF2012 035), read-out: MIC): 0.25 µg/mL (≈ 0.334 µM) | MIC (strain CDC39 (GCREF2012 036), read-out: MIC): 0.25 µg/mL (≈ 0.334 µM) | MIC (strain CDC40 (GCREF2012 037), read-out: MIC): 0.25 µg/mL (≈ 0.334 µM) | MIC (strain CDC41 (GCREF2012 038), read-out: MIC): 0.25 µg/mL (≈ 0.334 µM) | MIC (strain CDC42 (GCREF2012 039), read-out: MIC): 0.25 µg/mL (≈ 0.334 µM) | MIC (strain CDC43 (GCREF2012 040), read-out: MIC): 0.25 µg/mL (≈ 0.334 µM) | MIC (strain CDC45 (GCREF2012 042), read-out: MIC): 0.5 µg/mL (≈ 0.668 µM) | MIC (strain CDC46 (GCREF2012 043)): 0.125 µg/mL (≈ 0.167 µM) | MIC (strain CDC47 (GCREF2012 044), read-out: MIC): 0.5 µg/mL (≈ 0.668 µM) | MIC (strain CDC48 (GCREF2012 046), read-out: MIC): 0.25 µg/mL (≈ 0.334 µM) | MIC (strain CDC49 (GCREF2012 047), read-out: MIC): 0.5 µg/mL (≈ 0.668 µM) | MIC (strain CDC50 (GCREF2012 048), read-out: MIC): 0.25 µg/mL (≈ 0.334 µM) | MIC (strain CDC51 (GCREF2012 049)): 0.125 µg/mL (≈ 0.167 µM) | MIC (strain CDC52 (GCREF2012 050)): 0.125 µg/mL (≈ 0.167 µM) | MIC (strain CDC53 (GCREF2012 051)): 0.125 µg/mL (≈ 0.167 µM) | MIC (strain CDC54 (GCREF2012 052), read-out: MIC): 0.016 µg/mL (≈ 0.0214 µM) | MIC (strain CDC55 (GCREF2013 001)): 0.125 µg/mL (≈ 0.167 µM) | MIC (strain CDC56 (GCREF2013 002)): 0.125 µg/mL (≈ 0.167 µM) | MIC (strain CDC57 (GCREF2013 003)): 0.125 µg/mL (≈ 0.167 µM) | MIC (strain CDC58 (GCREF2013 004)): 0.125 µg/mL (≈ 0.167 µM) | MIC (strain CDC59 (GCREF2013 044)): 0.125 µg/mL (≈ 0.167 µM) | MIC (strain CDC60 (GCREF2013 005)): 0.125 µg/mL (≈ 0.167 µM) | MIC (strain CDC61 (GCREF2013 006), read-out: MIC): 0.25 µg/mL (≈ 0.334 µM) | MIC (strain CDC62 (GCREF2013 007)): 0.125 µg/mL (≈ 0.167 µM) | MIC (strain CDC63 (GCREF2013 008), read-out: MIC): 0.016 µg/mL (≈ 0.0214 µM) | MIC (strain CDC64 (GCREF2013 009)): 0.125 µg/mL (≈ 0.167 µM) | MIC (strain CDC65 (GCREF2013 010)): 0.125 µg/mL (≈ 0.167 µM) | MIC (strain CDC66 (GCREF2013 011), read-out: MIC): 4 µg/mL (≈ 5.34 µM) | MIC (strain CDC67 (GCREF2013 014)): 0.125 µg/mL (≈ 0.167 µM) | MIC (strain CDC68 (GCREF2013 016)): 0.125 µg/mL (≈ 0.167 µM) | MIC (strain CDC69 (GCREF2013 017)): 0.125 µg/mL (≈ 0.167 µM) | MIC (strain CDC70 (GCREF2013 018), read-out: MIC): 4 µg/mL (≈ 5.34 µM) | MIC (strain CDC71 (GCREF2013 019)): 0.125 µg/mL (≈ 0.167 µM) | MIC (strain CDC72 (GCREF2013 020)): 0.125 µg/mL (≈ 0.167 µM) | MIC (strain CDC73 (GCREF2013 021)): 0.125 µg/mL (≈ 0.167 µM) | MIC (strain CDC74 (GCREF2013 022)): 0.125 µg/mL (≈ 0.167 µM) | MIC (strain CDC75 (GCREF2013 023), read-out: MIC): 0.5 µg/mL (≈ 0.668 µM) | MIC (strain CDC76 (GCREF2013 024)): 0.125 µg/mL (≈ 0.167 µM) | MIC (strain CDC77 (GCREF2013 025), read-out: MIC): 4 µg/mL (≈ 5.34 µM) | MIC (strain CDC78 (GCREF2013 026), read-out: MIC): 0.031 µg/mL (≈ 0.0414 µM) | MIC (strain CDC79 (GCREF2013 027)): 0.125 µg/mL (≈ 0.167 µM) | MIC (strain CDC80 (GCREF2013 028), read-out: MIC): 8 µg/mL (≈ 10.7 µM) | MIC (strain CDC81 (GCREF2013 029)): 0.125 µg/mL (≈ 0.167 µM) | MIC (strain CDC82 (GCREF2013 031), read-out: MIC): 2 µg/mL (≈ 2.67 µM) | MIC (strain CDC83 (GCREF2013 032)): 0.125 µg/mL (≈ 0.167 µM) | MIC (strain CDC84 (GCREF2013 033)): 0.125 µg/mL (≈ 0.167 µM) | MIC (strain CDC86 (GCREF2013 035)): 0.125 µg/mL (≈ 0.167 µM) | MIC (strain CDC87 (GCREF2013 036)): 0.125 µg/mL (≈ 0.167 µM) | MIC (strain CDC88 (GCREF2013 037), read-out: MIC): 2 µg/mL (≈ 2.67 µM) | MIC (strain CDC89 (GCREF2013 038), read-out: MIC): 2 µg/mL (≈ 2.67 µM) | MIC (strain CDC90 (GCREF2013 039)): 0.125 µg/mL (≈ 0.167 µM) | MIC (strain CDC91 (GCREF2013 040)): 0.125 µg/mL (≈ 0.167 µM) | MIC (strain CDC92 (GCREF2013 041)): 0.125 µg/mL (≈ 0.167 µM) | MIC (strain CDC93 (GCREF2013 042)): 0.125 µg/mL (≈ 0.167 µM) | MIC (strain CDC94 (GCREF2013 043), read-out: MIC): 2 µg/mL (≈ 2.67 µM) | MIC (strain CDC95 (GCREF2013 045)): 0.125 µg/mL (≈ 0.167 µM) | MIC (strain CDC96 (GCREF2013 046)): 0.125 µg/mL (≈ 0.167 µM) | MIC (strain CDC97 (GCREF2013 047)): 0.125 µg/mL (≈ 0.167 µM) | MIC (strain CDC98 (GCREF2013 048), read-out: MIC): 2 µg/mL (≈ 2.67 µM) | MIC (strain CDC99 (GCREF2013 012), read-out: MIC): 4 µg/mL (≈ 5.34 µM) | MIC (strain CDC100 (GCREF2013 015)): 0.125 µg/mL (≈ 0.167 µM) | MIC90 (96 clinical isolates, read-out: MIC90): 2 µg/mL (≈ 2.67 µM)
